Test results reported in US9108930B2, “N1- and N2-carbamoyl-1,2,3-triazole serine hydrolase inhibitors and methods” (The Scripps Research Institute, priority 2011, dated 2015).
“And” between values parts separate entries of the source, which are not always exact repeats. Identical values can stand only once.

What was measured:
[1] = test system: serine hydrolases in mouse brain proteome; experiment: Selectivity profile by competitive ABPP (mouse brain proteome), DAGL series; format: biochemical
[2] = target: T1, DAGLB (Mus musculus, UniProt Q91WC9); experiment: Gel-based ABPP assay against recombinant DAGLB (HEK293T-DAGLB lysates); format: biochemical; parameters: Full-length cDNAs encoding serine hydrolases were purchased from Open Biosystems; V5; host or cells: HEK293T; conditions: for activity against DAGLB: recombinant
T1 sequence (Q91WC9 1-669): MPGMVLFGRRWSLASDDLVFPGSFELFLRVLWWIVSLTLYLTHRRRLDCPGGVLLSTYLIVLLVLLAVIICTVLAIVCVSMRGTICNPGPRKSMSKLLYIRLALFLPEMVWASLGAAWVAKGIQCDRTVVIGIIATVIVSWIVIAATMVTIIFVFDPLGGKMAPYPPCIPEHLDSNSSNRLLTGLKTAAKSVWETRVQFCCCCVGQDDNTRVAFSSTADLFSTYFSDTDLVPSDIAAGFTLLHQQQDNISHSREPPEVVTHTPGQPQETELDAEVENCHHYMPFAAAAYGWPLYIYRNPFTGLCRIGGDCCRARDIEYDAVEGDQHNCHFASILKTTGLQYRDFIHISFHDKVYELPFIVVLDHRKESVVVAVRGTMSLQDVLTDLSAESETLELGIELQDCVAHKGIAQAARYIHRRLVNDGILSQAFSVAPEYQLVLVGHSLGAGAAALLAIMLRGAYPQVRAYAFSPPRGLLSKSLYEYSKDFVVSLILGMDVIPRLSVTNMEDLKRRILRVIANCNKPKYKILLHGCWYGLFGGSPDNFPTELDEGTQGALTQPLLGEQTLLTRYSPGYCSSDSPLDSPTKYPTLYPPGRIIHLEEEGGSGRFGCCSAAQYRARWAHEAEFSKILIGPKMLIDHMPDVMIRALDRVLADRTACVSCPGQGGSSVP

[3] = target: T2, ABHD11 (Mus musculus, UniProt Q8K4F5); experiment: Gel-based competitive ABPP, mouse T-cell proteome in vitro; format: biochemical; conditions: for IC50: in vitro, 30 minutes at 37° C.
T2 sequence (Q8K4F5 35-307): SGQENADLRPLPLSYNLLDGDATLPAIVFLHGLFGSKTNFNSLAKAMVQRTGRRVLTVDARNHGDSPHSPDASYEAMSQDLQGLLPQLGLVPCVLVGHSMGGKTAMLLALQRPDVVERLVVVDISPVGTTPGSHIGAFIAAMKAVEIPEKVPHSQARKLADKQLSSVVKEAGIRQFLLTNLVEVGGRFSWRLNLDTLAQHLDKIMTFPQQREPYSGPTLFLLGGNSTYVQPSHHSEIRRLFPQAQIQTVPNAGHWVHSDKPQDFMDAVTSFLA

[4] = target: T2, ABHD11; experiment: In situ inhibition in cultured mouse T-cells, gel-based competitive ABPP; format: cell-based; conditions: 4 h at 37° C.; read-out: potency of ABHD11 inactivation in cultured T-cells
[5] = target: T2, ABHD11; experiment: ABPP-SILAC in living mouse T-cells; conditions: 3 nM inhibitor, 4 h
[6] = test system: serine hydrolases (SHs) in mouse T-cell proteomes; experiment: Gel-based competitive ABPP, mouse T-cell proteomes in vitro, SH reactivity profile; format: biochemical; conditions: 100 nM, 30 minutes at 37° C.
[7] = target: T3, DAGLA (Mus musculus, UniProt Q6WQJ1); experiment: Activity against recombinant DAGLA; format: biochemical
T3 construct: Full-length cDNAs encoding serine hydrolases were purchased from Open Biosystems; V5; host or cells: HEK293T
T3 sequence (Q6WQJ1 whole entry): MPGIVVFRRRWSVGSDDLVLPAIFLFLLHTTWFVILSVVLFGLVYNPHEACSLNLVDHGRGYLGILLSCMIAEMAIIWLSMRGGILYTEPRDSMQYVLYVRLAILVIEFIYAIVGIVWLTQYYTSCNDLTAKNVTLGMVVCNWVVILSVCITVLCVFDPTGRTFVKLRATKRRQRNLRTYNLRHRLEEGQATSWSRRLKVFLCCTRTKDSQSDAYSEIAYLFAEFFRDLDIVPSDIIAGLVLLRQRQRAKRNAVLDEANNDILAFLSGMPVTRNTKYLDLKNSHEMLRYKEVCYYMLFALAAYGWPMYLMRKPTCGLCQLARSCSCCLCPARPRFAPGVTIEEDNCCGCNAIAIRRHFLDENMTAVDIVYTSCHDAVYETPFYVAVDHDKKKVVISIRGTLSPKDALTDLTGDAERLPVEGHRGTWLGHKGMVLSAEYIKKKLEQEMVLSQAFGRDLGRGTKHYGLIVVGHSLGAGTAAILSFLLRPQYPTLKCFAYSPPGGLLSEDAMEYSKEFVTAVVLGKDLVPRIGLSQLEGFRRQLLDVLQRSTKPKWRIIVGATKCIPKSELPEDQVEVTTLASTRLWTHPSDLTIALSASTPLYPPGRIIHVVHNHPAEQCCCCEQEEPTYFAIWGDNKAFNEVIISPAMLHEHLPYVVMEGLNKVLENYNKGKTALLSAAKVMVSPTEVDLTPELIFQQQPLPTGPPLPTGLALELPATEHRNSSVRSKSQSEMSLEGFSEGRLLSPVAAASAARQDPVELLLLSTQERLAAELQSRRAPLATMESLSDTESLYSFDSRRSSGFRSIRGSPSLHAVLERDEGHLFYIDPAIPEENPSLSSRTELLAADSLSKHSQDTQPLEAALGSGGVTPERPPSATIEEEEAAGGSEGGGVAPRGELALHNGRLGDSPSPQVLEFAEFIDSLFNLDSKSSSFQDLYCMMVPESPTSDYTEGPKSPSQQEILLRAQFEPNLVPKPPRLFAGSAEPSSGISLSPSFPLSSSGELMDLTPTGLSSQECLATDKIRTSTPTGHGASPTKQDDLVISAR

[8] = test system: serine hydrolases in mouse tissues; experiment: In vivo ABPP analysis of tissues from KLH25-treated mice; conditions: 25 mg/kg in PEG300, i.p., about 4 hours
Procedure: To assess the degree to which KLH25 is active in vivo, mice were treated with the compound for about 4 hours (25 mg/kg in PEG300, administered intraperitoneally, i.p.), sacrificed, and tissues were harvested for ABPP analysis.

[9] = target: T4, APEH (Mus musculus, UniProt Q8R146); experiment: Gel-based competitive ABPP, mouse T-cell proteome in vitro; format: biochemical; conditions: IC50 for APEH, in vitro, 30 minutes at 37° C., mouse
T4 sequence (Q8R146 1-732): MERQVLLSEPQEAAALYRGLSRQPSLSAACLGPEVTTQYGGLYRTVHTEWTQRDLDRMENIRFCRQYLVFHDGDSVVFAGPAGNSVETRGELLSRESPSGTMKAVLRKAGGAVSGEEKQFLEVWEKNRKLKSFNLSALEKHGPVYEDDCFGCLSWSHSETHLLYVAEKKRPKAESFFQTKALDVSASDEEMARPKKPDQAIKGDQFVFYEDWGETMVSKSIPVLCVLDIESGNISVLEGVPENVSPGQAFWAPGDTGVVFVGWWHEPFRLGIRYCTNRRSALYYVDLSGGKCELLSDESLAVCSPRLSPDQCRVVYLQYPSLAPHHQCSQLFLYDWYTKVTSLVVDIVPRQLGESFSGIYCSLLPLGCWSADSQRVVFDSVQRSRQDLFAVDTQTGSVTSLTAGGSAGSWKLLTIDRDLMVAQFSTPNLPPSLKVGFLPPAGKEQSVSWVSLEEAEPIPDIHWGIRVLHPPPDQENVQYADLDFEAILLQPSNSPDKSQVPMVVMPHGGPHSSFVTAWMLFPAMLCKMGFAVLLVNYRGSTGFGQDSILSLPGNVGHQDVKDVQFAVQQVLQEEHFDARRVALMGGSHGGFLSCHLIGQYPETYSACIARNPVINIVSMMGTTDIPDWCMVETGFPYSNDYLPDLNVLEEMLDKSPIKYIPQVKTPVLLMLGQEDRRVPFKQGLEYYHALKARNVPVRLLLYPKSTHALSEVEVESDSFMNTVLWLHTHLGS
Procedure: The carbamoyl triazole regioisomers were separated by gel chromatography and used for subsequent experiments. […] The compounds were screened at concentrations of 10 and 100 nM in mouse T-cell proteomes (FIG. 3e and FIG. 12).
Gel-based competitive ABPP experiments were performed as described previously. For competitive ABPP with FP-rhodamine, proteomes (1 mg/mL in PBS) were treated with FP-rhodamine (2 μM final concentration) in a […] total reaction volume. After 30 minutes at 25° C., the reactions were quenched with 2×SDS-PAGE loading buffer.
Proteomes were incubated with inhibitors for 30 minutes at 37° C. (in vitro) or for 4 h at 37° C. (in situ) at the indicated concentrations (n=3) prior to FP-rhodamine labeling. After SDS-PAGE and in-gel visualization, the percentage enzymatic activity remaining was determined by measuring the integrated optical intensity of the bands using IMAGER® software. IC50 values were determined from a dose-response curve generated using PRISM® software (GraphPad).

[10] = target: PAFAH2 (Mus musculus, UniProt Q8VDG7); experiment: as above; format: biochemical; conditions: 30 minutes at 37° C.
PAFAH2, sequence (Q8VDG7 whole entry): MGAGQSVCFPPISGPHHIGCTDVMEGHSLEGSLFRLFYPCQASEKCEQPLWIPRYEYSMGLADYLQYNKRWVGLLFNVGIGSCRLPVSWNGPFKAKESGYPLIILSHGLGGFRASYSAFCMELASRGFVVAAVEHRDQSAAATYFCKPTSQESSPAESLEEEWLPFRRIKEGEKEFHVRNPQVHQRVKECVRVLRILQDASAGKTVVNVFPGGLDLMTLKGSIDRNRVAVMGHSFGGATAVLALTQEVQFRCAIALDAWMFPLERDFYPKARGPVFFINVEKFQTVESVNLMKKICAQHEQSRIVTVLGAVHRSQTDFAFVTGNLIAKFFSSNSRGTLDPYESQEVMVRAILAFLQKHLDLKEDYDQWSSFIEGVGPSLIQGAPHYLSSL

## O=C(N1CCCCC1Cc1ccccc1)n1cc(C(O)(c2ccccc2)c2ccccc2)nn1 (stereo not shown) [AA43-2]
[1]
  off-target activity / selectivity against other serine hydrolases: off-target activity against several other serine hydrolases, notably ABHD6, KIAA1363, and LYPLA1/2
[2]
  IC50: ~200 nM
  activity against DAGLB: completely blocked probe-labeling of DAGLB

## COCC1CCCCN1C(=O)n1ncc(C(O)(c2ccccc2)c2ccccc2)n1 (stereo not shown) [AA44-2]
[3]; 10 nM
  inhibition of ABHD11: complete inactivation
[3]
  IC50: 1 nM
[4]
  IC50: 0.14 to 0.17 nM
[5]
  ABHD11 activity blocked: > 95% and > 97%
[6]
  cross-reactivity with other SHs: no cross-reactivity with APEH, PAFAH2, or other SHs

## O=C(N1CCCCC1Cc1ccccc1)n1cc(-c2ccc(OC(F)(F)F)cc2)nn1 (stereo not shown) [KLH25]
[7]
  activity against DAGLA: exhibited activity against both DAGL enzymes
[1]
  off-target activity / selectivity against other serine hydrolases: negligible activity against LYPLA1, LYPLA2, and PAFAH2
[8]
  inhibition of ABHD6 and FAAH in vivo: Potent inhibition of ABHD6 and FAAH
  inhibition of endogenous DAGLA or DAGLB in vivo: No inhibition of protein bands corresponding to endogenous DAGLA or DAGLB
[2]
  activity against DAGLB: significantly more potent against DAGLB in comparison to AA43-2

## O=C(N1CCCCC1Cc1ccccc1)n1cc(-c2ccc(Br)cc2)nn1 (stereo not shown) [KT116]
[2]
  potency against DAGLB relative to KT117: greater than 5 fold

## COCC1CCCCN1C(=O)n1cc(C(O)(c2ccccc2)c2ccccc2)nn1 (stereo not shown) [N1 AA44-2]
[3]
  IC50: ~58 nM

## CC(C)CC(O)(CC(C)C)c1cn(C(=O)N2CCCC2)nn1 [N1 AA74-1]
[9]
  IC50: ~8 nM

## O=C(N1CCCC1)n1cc(-c2ccc(Br)cc2)nn1 [N1 AA80-1]
[10]
  IC50: 11 nM

## O=C(N1CCCC1)n1ncc(-c2ccc(Br)cc2)n1 [N2 AA80-1]
[10]
  IC50: 5 nM

## CCCCCCCCCCC[C@@H](C[C@@H]1OC(=O)[C@H]1CCCCCC)OC(=O)[C@H](CC(C)C)NC=O [THL, tetrahydrolipstatin, reference compound]
[2]
  activity against DAGLB: blocked
